Reference: US11147272B2, “Pyridone compounds and agricultural and horticultural fungicides comprising the same as active ingredients” (MITSUI CHEMICALS AGRO, INC., priority 2017, dated 2021)

Assays:
Phytophthora infestans = experiment: whole plant or invertebrate; format: in vivo; conditions: 250 ppm drug solution sprayed on test plant
Botrytis cinerea = experiment: Test Example B: Gray mold on tomato; conditions: 250 ppm drug solution sprayed on test plant
Alternaia brassicicola = experiment: Test Example C: Alternaria sooty spot on cabbage; format: in vivo; conditions: 250 ppm drug solution sprayed on test plant
Text: Seeds of a test plant (cabbage variety: Shikidori) were planted and cultivated until the cotyledons extended.
<Control Value> Control value=100{1−(n/3)}

[1] = system: Colletotrichum orbiculare; experiment: Test Example H: Anthracnose on cucumber; conditions: 250 ppm drug solution sprayed (2.5 ml/pot), cucumber Sagami Hanjiro, 6 to 10 days after inoculation
Magnaporthe grisea = experiment: whole plant or invertebrate; format: in vivo; conditions: 250 ppm drug solution sprayed on test plant
Puccinia recondita = experiment: Test Example E: Brown rust on wheat; format: in vivo; conditions: 250 ppm drug solution sprayed on test plant
[2] = system: Blumeria graminis f. sp. hordei; experiment: Test Example D: Powdery mildew on barley; conditions: 250 ppm drug solution sprayed on test plant
Plasmopara viticola = experiment: Test Example G: Downy mildew on vine; conditions: 250 ppm drug solution sprayed (2.5 ml/pot), grape Neomuscat, 7 to 10 days after inoculation

SMILES	Test F control value (Phytophthora infestans)	Test B control value (Botrytis cinerea)	Test C control value (Alternaia brassicicola)	Test H control value [1]	Test A control value (Magnaporthe grisea)	Test E control value (Puccinia recondita)	Test D control value [2]	Test G control value (Plasmopara viticola)
CCCc1cc(Br)c(=O)n(CC)c1-c1c(F)cc(F)cc1F [compound 389]	L (50% or less control value)	H (more than 50% control value)	H (more than 50% control value)	H (more than 50% control value)	H (more than 50% control value)	H (more than 50% control value)	H (more than 50% control value)	L (50% or less control value)
CCc1cc(Cl)c(=O)n(CC)c1-c1c(F)cc(OC)cc1F [compound 390]	L (50% or less control value)	H (more than 50% control value)	H (more than 50% control value)	H (more than 50% control value)	H (more than 50% control value)	H (more than 50% control value)	H (more than 50% control value)	H (more than 50% control value)
CCc1cc(Br)c(=O)n(CC)c1-c1c(F)cc(OC)cc1F [compound 391]	L (50% or less control value)	H (more than 50% control value)	H (more than 50% control value)	H (more than 50% control value)	H (more than 50% control value)	H (more than 50% control value)	L (50% or less control value)	L (50% or less control value)
CCCc1ccc(=O)n(C)c1-c1ccc(F)cc1Br [compound 410]	L (50% or less control value)	L (50% or less control value)	L (50% or less control value)	L (50% or less control value)	L (50% or less control value)	H (more than 50% control value)	H (more than 50% control value)	L (50% or less control value)
CCCc1ccc(=O)n(CC)c1-c1ccc(OC)cc1C [compound 411]	L (50% or less control value)	H (more than 50% control value)	L (50% or less control value)	L (50% or less control value)	L (50% or less control value)	H (more than 50% control value)	H (more than 50% control value)	L (50% or less control value)
CCCc1cc(Cl)c(=O)n(CC)c1-c1ccc(OC)cc1C [compound 412]	H (more than 50% control value)	H (more than 50% control value)	H (more than 50% control value)	H (more than 50% control value)	H (more than 50% control value)	H (more than 50% control value)	H (more than 50% control value)	L (50% or less control value)
CCCc1cc(Br)c(=O)n(CC)c1-c1ccc(OC)cc1C [compound 413]	L (50% or less control value)	H (more than 50% control value)	H (more than 50% control value)	H (more than 50% control value)	H (more than 50% control value)	H (more than 50% control value)	L (50% or less control value)	L (50% or less control value)
CCCc1cc(Cl)c(=O)n(C)c1-c1ccc(F)cc1Br [compound 414]	L (50% or less control value)	H (more than 50% control value)	H (more than 50% control value)	H (more than 50% control value)	H (more than 50% control value)	H (more than 50% control value)	H (more than 50% control value)	L (50% or less control value)
CCCc1cc(Br)c(=O)n(C)c1-c1ccc(F)cc1Br [compound 415]	L (50% or less control value)	H (more than 50% control value)	H (more than 50% control value)	L (50% or less control value)	H (more than 50% control value)	H (more than 50% control value)	L (50% or less control value)	L (50% or less control value)
CCCc1ccc(=O)n(C)c1-c1ccc(OC)cc1Br [compound 416]	L (50% or less control value)	L (50% or less control value)	L (50% or less control value)	L (50% or less control value)	L (50% or less control value)	H (more than 50% control value)	L (50% or less control value)	L (50% or less control value)
CCCc1cc(Cl)c(=O)n(C)c1-c1ccc(OC)cc1Br [compound 417]	L (50% or less control value)	H (more than 50% control value)	H (more than 50% control value)	H (more than 50% control value)	L (50% or less control value)	H (more than 50% control value)	L (50% or less control value)	L (50% or less control value)
CCCc1cc(Br)c(=O)n(C)c1-c1ccc(OC)cc1Br [compound 418]	H (more than 50% control value)	H (more than 50% control value)	H (more than 50% control value)	H (more than 50% control value)	L (50% or less control value)	H (more than 50% control value)	L (50% or less control value)	L (50% or less control value)
CCCc1ccc(=O)n(C)c1-c1ccc(F)cc1C [compound 419]	L (50% or less control value)	L (50% or less control value)	H (more than 50% control value)	H (more than 50% control value)	L (50% or less control value)	L (50% or less control value)	L (50% or less control value)	L (50% or less control value)
CCCc1cc(Cl)c(=O)n(C)c1-c1ccc(F)cc1C [compound 420]	L (50% or less control value)	H (more than 50% control value)	L (50% or less control value)	L (50% or less control value)	L (50% or less control value)	H (more than 50% control value)	H (more than 50% control value)	L (50% or less control value)
CCCc1cc(Br)c(=O)n(C)c1-c1ccc(F)cc1C [compound 421]	L (50% or less control value)	H (more than 50% control value)	H (more than 50% control value)	H (more than 50% control value)	L (50% or less control value)	H (more than 50% control value)	H (more than 50% control value)	L (50% or less control value)
CCCC1=C(c2c(F)cccc2F)N(CC)C(=O)CC1 [compound 422]	L (50% or less control value)	L (50% or less control value)	H (more than 50% control value)	L (50% or less control value)	L (50% or less control value)	L (50% or less control value)	H (more than 50% control value)	L (50% or less control value)
CC(C)C(C)(O)c1cc(Br)c(=O)n(C)c1-c1c(F)cc(F)cc1F (stereo not drawn) [compound 423]	H (more than 50% control value)	H (more than 50% control value)	H (more than 50% control value)	H (more than 50% control value)	H (more than 50% control value)	H (more than 50% control value)	H (more than 50% control value)	H (more than 50% control value)
CCCC1=C(c2c(F)cc(F)cc2F)N(CC)C(=S)CC1 [compound 424]	L (50% or less control value)	H (more than 50% control value)	L (50% or less control value)	L (50% or less control value)	L (50% or less control value)	L (50% or less control value)	L (50% or less control value)	L (50% or less control value)
